Patent US20040063746A1, “Indole, azaindole and related heterocyclic ureido and thioureido piperazine derivatives” (priority 2002, published 2004)
pEC50: −log10 of the molar value.

Tested on: HIV-1 single-round infectious reporter virus
Test: microbe, parasite or virus in culture
Type: cell-based
Conditions: Human immunodeficiency virus 1, HeLa, 72 h, read-out: EC50 Group from Table 1
Procedure: Virus production-Human embryonic Kidney cell line, 293T, was propagated in Dulbecco's Modified Eagle Medium (Invitrogen, Carlsbad, Calif.) containing 10% fetal Bovine serum (FBS, Sigma, St. Louis, Mo.).
Virus infection—Human epithelial cell line, HeLa, expressing the HIV-1 receptor CD4 was propagated in Dulbecco's Modified Eagle Medium (Invitrogen, Carlsbad, Calif.) containing 10% fetal Bovine serum (FBS, Sigma, St. Louis, Mo.) and supplemented with 0.2 mg/mL Geneticin (Invitrogen, Carlsbad, Calif.).
Virus-Single-round infectious reporter virus was produced by co-transfecting human embryonic Kidney 293 cells with an HIV-1 envelope DNA expression vector and a proviral cDNA containing an envelope deletion mutation and the luciferase reporter gene inserted in place of HIV-1 nef sequences (Chen et al, Ref. 41). Transfections were performed using lipofectAMINE PLUS reagent as described by the manufacturer (Invitrogen, Carlsbad, Calif.).
1. HeLa CD4 cells were plated in 96 well plates at a cell density of 1×10^4 cells per well in 100 μl Dulbecco's Modified Eagle Medium containing 10% fetal Bovine serum and incubated overnight.
2. Compound was added in a 2 μl dimethylsulfoxide solution, so that the final assay concentration would be ≦10 μM.
3. 100 μl of single-round infectious reporter virus in Dulbecco's Modified Eagle Medium was then added to the plated cells and compound at an approximate multiplicity of infection (MOI) of 0.01, resulting in a final volume of 200 μl per well.
4. Virally-infected cells were incubated at 37 degrees Celsius, in a CO2 incubator, and harvested 72 h after infection.
5. Viral infection was monitored by measuring luciferase expression from viral DNA in the infected cells using a luciferase reporter gene assay kit, as described by the manufacturer (Roche Molecular Biochemicals, Indianapolis, Ind.). Infected cell supernatants were removed and 50 μl of lysis buffer was added per well. After 15 minutes, 50 μl of freshly-reconstituted luciferase assay reagent was added per well. Luciferase activity was then quantified by measuring luminescence using a Wallac microbeta scintillation counter.
7. An EC50 provides a method for comparing the antiviral potency of the compounds of this invention. The effective concentration for fifty percent inhibition (EC50) was calculated with the Microsoft Excel Xlfit curve fitting software. For each compound, curves were generated from percent inhibition calculated at 10 different concentrations by using a four paramenter logistic model (model 205). Table 1 is the key for the data in Table 2.

Row | Structure (SMILES) | pEC50
1 | COC(=O)c1ccc(F)c2c(C(=O)C(=O)N3CCN(C(=O)N(C)C)CC3)c[nH]c12 [Example 1] | 5.30 to 6.00
2 | CNC(=O)c1ccc(F)c2c(C(=O)C(=O)N3CCN(C(=O)N(C)C)CC3)c[nH]c12 [Example 2] | > 6.00
3 | CNC(=O)c1ccc(F)c2c(C(=O)C(=O)N3CCN(C(=S)N(C)C)CC3)c[nH]c12 [Example 3] | > 6.00
4 | CNC(=O)c1ccc(F)c2c(C(=O)C(=O)N3CCN(C(=O)N(C)c4ccccc4)CC3)c[nH]c12 [Example 4] | 5.30 to 6.00
5 | CCN(CC)C(=O)N1CCN(C(=O)C(=O)c2c[nH]c3c(C(=O)NC)ccc(F)c23)CC1 [Example 5] | 5.30 to 6.00
6 | CNC(=O)c1ccc(F)c2c(C(=O)C(=O)N3CCN(C(=O)N(C(C)C)C(C)C)CC3)c[nH]c12 [Example 6] | < 5.30
7 | CNC(=O)c1ccc(F)c2c(C(=O)C(=O)N3CCN(C(=O)NC(C)(C)C)CC3)c[nH]c12 [Example 7] | < 5.30
8 | CCCCNC(=S)N1CCN(C(=O)C(=O)c2c[nH]c3c(C(=O)NC)ccc(F)c23)CC1 [Example 8] | < 5.30
9 | CN(C)C(=O)N1CCN(C(=O)C(=O)c2c[nH]c3c(-n4cncn4)ncc(F)c23)CC1 [Example 9] | > 6.00
10 | CNC(=O)c1ccc(F)c2c(C(=O)C(=O)N3CCN(C(=O)N4CCCC4)CC3)c[nH]c12 [Example 15] | 5.30 to 6.00
